Measurements: patent US4764461A, “Tellurium and selenium compounds for the induction of in vivo and in vitro production of cytokines” (priority 1987, dated 1988)
Values joined by “and” are separate entries in the source; they are usually repeats but may differ in a detail not shown here. Identical values can stand only once. “Also recorded” adds a separate entry of the source.

Legend:
[1] = system: IL-2; spleen cells; assay: In vitro IL-2 secretion of mouse spleen cells, CTLD assay (Example 17); assay type: cell-based, Balb/c mice; settings: IL-2 activity, 24 h; control 2,550
Description: The compounds listed below were tested in vitro at various concentrations that ranged from 10 μg/ml cells to 1×10^-6 μg/ml of cell mixtures. Cells were obtained from spleens of male Balb/c mice 6-8 weeks of age. Spleens were pushed through a stainless steel 60 mesh strainer to separate cells.

[2] = system: West Nile virus (WNV); assay: West Nile virus infection in mice (Example 22); assay type: in vivo, ICR mice
Description: The effect of the compound of Example 1 on an infection with West Nile virus (WNV) was determined. WNV is a toga virus of the flavivirus group, a positive single stranded RNA virus, which when injected IP to mice usually kills them within 5-8 days as a result of extensive damage to the central nervous system. For this study ICR mice (3 wks of age) were injected IP with the virus at the concentration of 10^3 or 10^4 LD 50 units/mouse. Injections of 10 μg/0.2 ml PBS/mouse of the compound of Ex. 1 were given on day -1 (one day prior to injection of virus) and 6 days after injection of virus.
In a second experiment, mice were injected with 10^3 IPLD50 virus and received injections of the compound of Example 1 (1 μg/0.2 ml PBS/mouse) on days -1, 1, 2 and 4.

[3] = system: IL-2; human mononuclear cells; assay: IL-2 production by human mononuclear cells of normal donors and systemic lupus patients, with or without PHA (Example 20); assay type: cell-based
Description: Using the procedure of Example 4, human mononuclear cells were tested for their ability to produce IL-2 after induction with PHA or in unstimulated cells from normal donors and from patients suffering from systemic lupus erthyrematous. The IL-2 content was tested according to the procedure of Example 3 using the CTLD IL-2 dependent cell line.
*Dilution of 1 part of 0.2 ml of PBS containing 5 μg of compound of Ex
**CPM × 10^-3 of ^3 H Thymidine of 5 × 10^4 CTLD
cells in presence of 1:2 dilution of the supernatants as in Ex. 3. PG,4

[4] = system: IL-2; mouse spleen cells; assay: In vitro induction of IL-2 from mouse spleen cells (Example 7); assay type: cell-based, Balb-c mice; settings: baseline 4,000-5,000 CPM
Description: (§1) This example describes the in vitro making of IL-2 and CSF from mouse spleen cells using the compound of Example 1 as the extrinsic stimulating agent.
(§2) Spleens were removed from 15, male Balb-c mice 6 to 8 weeks of age. The spleen cells were pushed through stainless steel 60 mesh (U.S. standard) nets resting in […] Petri dishes containing PBS in order to separate the cells. The cells were then collected into centrifuge tubes and spun at 1000 rpm for 10 minutes. The supernatant was discarded and cells were treated with 5 ml of hypotonic buffer (0.15MNH4 Cl; 0.01M KHCO3 dissolved in double distilled water, pH 7.2) for exactly two minutes. Thereafter, PBS was added to the cells and the test tubes were centrifuged for 10 minutes at 1000 rpm. The cells were rinsed twice and counted in a heamocytometer using trypan blue to test for viability. The cells were brought to a concentration of 10^7 viable cells/ml. The cells were contacted with varying amounts of the compound of Example 1 in 1 ml of 40% DMSO 60% PBS.

[5] = system: IL-2; human mononuclear cells; assay: IL-2 activity of human mononuclear cell supernatants on CTLD cells (Example 8); assay type: cell-based; settings: control CTLD cells 3,500
Description: Human mononuclear cells were obtained as described above and cultured for 72 hours at a concentration of 10^6 cells/ml enriched RPMI, in the presence of varying concentrations of the compound of Example 1. Culture supernatants were collected, centrifuged and tested for IL-2 activity by using 50% of the volume of the supernatant assaying their ability to support the proliferation of the IL-2 dependent cell line CTLD.

[6] = system: fibrosarcoma cells; assay: Survival of mice with methylcholanthrene-induced fibrosarcoma cells (Example 6); assay type: in vivo, Balb-c mice; settings: until just after the increased dosage regimen (day 39)
Description: Balb-c mice, age 7 weeks were injected with methylcholanthrene to induce the formation of fibrosarcoma cells according to the procedure of Example 5. The test animals were divided into two groups.
(a) control (0.2 IP of 40% DMSO and 60% PBS)

[7] = system: IL-2; assay: Oral administration: induction of lymphokines, IL-2 content of spleen cell supernatants (Example 13); assay type: in vivo, Balb-C mice; settings: for IL-2, percent increase as compared to control: 4 days
Description: The water solution was prepared by dissolving the compounds in PBS at a concentration of 50 μg/ml PBS and diluting the resulting solution to the desired concentration. The compounds were administered over a 4 day period. The exact amount of liquid intake was recorded daily. […] The cells were incubated at a concentration of 10^7 cells/ml in enriched RPMI containing 2 μg/ml of con-A for 24 hours at 37° C. The supernatants were collected and tested for IL-2 content.
After 24 hours the mice were sacrificed and the spleens were processed as described above.

[8] = system: West Nile virus (WNV); assay: WNV yield in mouse macrophage cultures (Example 23); assay type: cell-based, WNV in ICR mouse macrophages; settings: for Virus Yield (PFU/ml): virus alone 2 × 10^4 /ml
Description: Varying amounts of the compound of Example 1 (5 μg, 1 μg, 0.1 μg) were incubated with a monolayer of mouse macrophages for 24 h. […] All cultures were then infected with 10^4 PFU/plate. After 72 h incubation the supernatants were collected and the virus was titrated against Vera cells.

[9] = system: mice; assay: Preliminary toxicity studies in mice; assay type: in vivo; settings: 6 week old mice
Description: The compounds may be used as anti-bacterial or anti-viral agents in plants or in animals. Virus infections such as West Nile virus infections in mice are susceptible to the compound of the Example 1 at a dose of 10 μg/day/mouse. Plant bacterial infections such as crown gall caused by Agrobacterium tumefaciens may be treated or prevented by the application of a 0.1% solution of compounds of the invention.

[10] = system: CSF; mouse spleen cells; assay: In vitro induction of colony stimulating factor (CSF) from mouse spleen cells (Example 7); assay type: cell-based, Balb-c mice; settings: baseline 70-80 colonies/dish
Description: as §1, §2

O=C(O[Te](OC(=O)c1ccccc1)(c1ccccc1)c1ccccc1)c1ccccc1 [Ph2 Te(OCOPh)2]
Spleen Cells (cpm) [1]: 4,300 cpm

CC(=O)O[Te](OC(C)=O)(c1ccccc1)c1ccccc1 [Ph2 Te(OCOCH3)2]
Spleen Cells (cpm) [1]: 3,500 cpm

Cl[Te](Cl)(c1ccccc1)c1ccccc1 [Ph2 TeCl2]
Spleen Cells (cpm) [1]: 2,300 cpm

Ph2 TeCl
Spleen Cells (cpm) [1]: 2,100 cpm

Cl[TeH]1(Cl)(Cl)OCCO1 [Example 1]
West Nile virus infections in mice ([2]; 10 μg/day/mouse): susceptible
animals remained alive after 8 days ([2]; 10^3 or 10^4 LD50 virus, 10 μg/mouse): three out of five
# Alive/Total Animals ([2]; Table A, no virus (0), compound alone): 6/6
further survival of the remaining three mice ([2]; second experiment, after day 8): Two out of the remaining three survived an additional 8 days; also recorded: the third remained alive without any manifestations of clinical symptoms
# Alive/Total ([2]; second experiment, day 8, 10^3 IPLD50 virus, 1 μg/mouse on days -1, 1, 2 and 4, virus alone 0/8): 3 out of 5 and 3/5
# Alive/Total ([2]; second experiment, day 8, compound alone, no virus): 5/5
IL-2 production, CPM × 10^-3 of 3H thymidine ([3]; SLE, PHA +, 5 μg 0.2 ml PBS): 6.3 CPM × 10^-3 and 8.2 CPM × 10^-3 and 4.1 CPM × 10^-3
IL-2 production, CPM × 10^-3 of 3H thymidine ([3]; SLE, PHA +, 1:100 PBS): 24.0 CPM × 10^-3
IL-2 production, CPM × 10^-3 of 3H thymidine ([3]; SLE, PHA -, 5 μg 0.2 ml PBS): 2.0 CPM × 10^-3 and 2.4 CPM × 10^-3
IL-2 production, CPM × 10^-3 of 3H thymidine ([3]; normal, PHA -, 5 μg 0.2 ml PBS): 2.3 CPM × 10^-3 and 2.1 CPM × 10^-3
IL-2 (cpm) ([4]; 5 pg): 12,000 cpm
IL-2 (cpm) ([4]; 50 pg): 38,000 cpm
IL-2 (cpm) ([4]; 500 pg): 30,000 cpm
IL-2 (cpm) ([4]; 5 ng): 15,000 cpm
IL-2 (cpm) ([4]; 50 ng): 6,000 cpm
IL-2 (cpm) ([4]; 500 ng): 5,000 cpm
IL-2 (cpm) ([4]; 5 μg): 5,000 cpm
IL-2 (cpm) ([4]; 50 μg): 5,000 cpm
IL-2 activity, Counts per minute ([5]; 1 ng): 11,000 Counts per minute
IL-2 activity, Counts per minute ([5]; 10 ng): 1,500 Counts per minute
IL-2 activity, Counts per minute ([5]; 1 μg): 250 Counts per minute
IL-2 activity, Counts per minute ([5]; 100 μg): 280 Counts per minute
mortality results for group (b) [6]: 0%
IL-2, percent increase as compared to control ([7]; 1 μg/ml drinking water): 50%
inducing lymphokine production ([7]; given in dry form or when hydrolyzed in an aqueous diluent): active for inducing lymphokine production
reduction in virus yield ([8]; 0.1 μg): ten
Virus Yield (PFU/ml) ([8]; 0.1 μg/plate): 2 × 10^3 PFU/ml
Virus Yield (PFU/ml) ([8]; 1 μg/plate): 5 × 10^2 PFU/ml
LD50 [9]: 300 ug./25 g of body weight
CSF (colonies/dish) ([10]; 5 pg): 140 colonies/dish
CSF (colonies/dish) ([10]; 50 pg): 260 colonies/dish
CSF (colonies/dish) ([10]; 5 ng): 120 colonies/dish
CSF (colonies/dish) ([10]; 50 ng): 75 colonies/dish
CSF (colonies/dish) ([10]; 500 ng): 25 colonies/dish
CSF (colonies/dish) ([10]; 5 μg): 5 colonies/dish
CSF (colonies/dish) ([10]; 50 μg): 2 colonies/dish

Cl[Te]1(Cl)OCCO1 [Example 2]
Spleen Cells (cpm) [1]: 18,000 cpm
IL-2, percent increase as compared to control ([7]; 1 μg/ml drinking water): 30%
IL-2, percent increase as compared to control ([7]; 25 μg/ml drinking water): 35%

Cl[Te](Cl)(Cl)c1ccccc1 [PhTeCl3]
Spleen Cells (cpm) [1]: 18,000 cpm
